Measurements reported in the supplement of paper PMC10307832.

Key:
Test in all cases: relative viability (nuclei count vs DMSO), 5 days (fraction); higher = more cells survive
IU1-47 + Pictilisib = compound: CC1=CC(=C(N1C2=CC=C(C=C2)Cl)C)C(=O)CN3CCCCC3 [IU1-47] + CS(=O)(=O)N1CCN(Cc2cc3nc(-c4cccc5[nH]ncc45)nc(N4CCOCC4)c3s2)CC1 [Pictilisib] (partner 1 µM)
How it was run: (§1)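 A single step with final 0.05% Triton X-100, 1% formaldehyde and 1 ug/ml Hoechst fixed the cells and stained nuclei 5 days after treatment. Lung cancer cell lines in 1536-well plates had been treated by pin tool the day after seeding with one drug alone or a fixed anchor-drug dose plus five library-drug doses (not always all listed) in √10 steps, and nuclei were counted on 4× images. Relative viability is the ratio of nuclei in treated wells to nuclei in vehicle wells, taken as the median of duplicate plates.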

IU1-47 + Decitabine = compound: CC1=CC(=C(N1C2=CC=C(C=C2)Cl)C)C(=O)CN3CCCCC3 [IU1-47] + Nc1ncn([C@H]2C[C@H](O)[C@@H](CO)O2)c(=O)n1 [Decitabine] (partner 2 µM)
How it was run: as §1

FG-4592 + Trametinib = compound: Cc1nc(C(=O)NCC(=O)O)c(O)c2ccc(Oc3ccccc3)cc12 [FG-4592] + CC(=O)Nc1cccc(-n2c(=O)n(C3CC3)c(=O)c3c(Nc4ccc(I)cc4F)n(C)c(=O)c(C)c32)c1 [Trametinib] (partner 0.02 µM)
How it was run: as §1

FG-4592 + Crizotinib = compound: Cc1nc(C(=O)NCC(=O)O)c(O)c2ccc(Oc3ccccc3)cc12 [FG-4592] + C[C@@H](Oc1cc(-c2cnn(C3CCNCC3)c2)cnc1N)c1c(Cl)ccc(F)c1Cl [Crizotinib] (partner 1 µM)
How it was run: as §1

UMC-11
relative viability (IU1-47 + Pictilisib; first compound 0.08 µM): 0.678 | relative viability (IU1-47 + Pictilisib; first compound 0.253 µM): 0.75 | relative viability (IU1-47 + Pictilisib; first compound 0.8 µM): 0.868 | relative viability (IU1-47 + Pictilisib; first compound 2.53 µM): 1.01 | relative viability (IU1-47 + Pictilisib; first compound 8 µM): 0.743 | relative viability (IU1-47 + Decitabine; first compound 0.08 µM): 0.664 | relative viability (IU1-47 + Decitabine; first compound 0.253 µM): 0.622 | relative viability (IU1-47 + Decitabine; first compound 0.8 µM): 0.571 | relative viability (IU1-47 + Decitabine; first compound 2.53 µM): 0.581 | relative viability (IU1-47 + Decitabine; first compound 8 µM): 0.717 | relative viability (FG-4592 + Trametinib; first compound 0.08 µM): 0.626 | relative viability (FG-4592 + Trametinib; first compound 0.253 µM): 0.697 | relative viability (FG-4592 + Trametinib; first compound 0.8 µM): 0.504 | relative viability (FG-4592 + Trametinib; first compound 2.53 µM): 0.528 | relative viability (FG-4592 + Trametinib; first compound 8 µM): 0.452 | relative viability (FG-4592 + Crizotinib; first compound 0.08 µM): 0.546 | relative viability (FG-4592 + Crizotinib; first compound 0.253 µM): 0.644 | relative viability (FG-4592 + Crizotinib; first compound 0.8 µM): 0.582 | relative viability (FG-4592 + Crizotinib; first compound 2.53 µM): 0.642 | relative viability (FG-4592 + Crizotinib; first compound 8 µM): 0.536
